Earlier results, collected in patent US10426724B2, “Antihistamine compositions, combinations, and use thereof” (APTAPHARMA INC., priority 2016, dated 2019).

Target: histamine H1-receptors (Homo sapiens, UniProt P35367)
Details: from time of administration to symptomatic relief; Annals of Allergy, Asthma, & Immunology (1997), 79

Sequence of histamine H1-receptors (P35367 whole entry): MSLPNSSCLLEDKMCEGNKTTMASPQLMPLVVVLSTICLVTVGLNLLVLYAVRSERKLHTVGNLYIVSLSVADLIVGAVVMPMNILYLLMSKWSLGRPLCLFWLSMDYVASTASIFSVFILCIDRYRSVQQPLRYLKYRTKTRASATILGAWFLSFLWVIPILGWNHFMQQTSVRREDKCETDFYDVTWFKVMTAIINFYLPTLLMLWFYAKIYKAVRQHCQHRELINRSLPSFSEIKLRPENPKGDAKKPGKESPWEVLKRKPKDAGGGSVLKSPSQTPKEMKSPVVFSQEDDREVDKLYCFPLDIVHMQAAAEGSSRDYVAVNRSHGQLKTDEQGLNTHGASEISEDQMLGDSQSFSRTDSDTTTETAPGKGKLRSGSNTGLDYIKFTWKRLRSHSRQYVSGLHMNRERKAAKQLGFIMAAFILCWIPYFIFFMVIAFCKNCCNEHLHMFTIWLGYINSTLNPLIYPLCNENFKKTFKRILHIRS

- lag time before onset of action: several hours
Structure (SMILES): O=C(O)COCCN1CCN(C(c2ccccc2)c2ccc(Cl)cc2)CC1 (stereo not shown) [cetirizine]
